From patent publication US8791303B2, “Herbicides” (Syngenta Limited, priority 2009, dated 2014) come the findings set out here.

The structures appear in SMILES notation.

What all share (type): in vivo
The subject of data set [1] is Echinochloa crus-galli (ECHCG). The data set is described as follows: Example A glasshouse herbicide test, post-emergence, ECHCG. The note with it: Echinochloa crus-galli, post-emergence, 312 h, Rate 250 g/ha, sprayed after 8 days cultivation, evaluated after 13 days, read-out: Post-Emergence Activity ECHCG (100=total damage to plant; 0=no damage to plant). Here is the method: (§1) Seeds of a variety of test species are sown in standard soil in pots. After cultivation for one day (pre-emergence) or after 8 days cultivation (post-emergence) under controlled conditions in a glasshouse (at 24/16° C., day/night; 14 hours light; 65% humidity), the plants are sprayed with an aqueous spray solution derived from the formulation of the technical active ingredient in acetone/water (50:50) solution containing 0.5% Tween 20 (polyoxyethelyene sorbitan monolaurate, CAS RN 9005-64-5).
(§2) The test plants are then grown in a glasshouse under controlled conditions in a glasshouse (at 24/16° C., day/night; 14 hours light; 65% humidity) and watered twice daily. After 13 days for pre and post-emergence, the test is evaluated (100=total damage to plant; 0=no damage to plant).
(§3) Lolium perenne (LOLPE), Alopecurus myosuroides (ALOMY), Echinochloa crus-galli (ECHCG), Avena fatua (AVEFA)

For data set [2], the system named is Lolium perenne (LOLPE). The data set can be described thus: Example A glasshouse herbicide test, pre-emergence, LOLPE. The conditions noted are these: Lolium perenne, pre-emergence, 312 h, Rate 250 g/ha, sprayed after cultivation for one day, evaluated after 13 days, read-out: Pre-Emergence Activity LOLPE (100=total damage to plant; 0=no damage to plant). The method, then:
as §1, §2, §3

Data set [3] concerns Lolium perenne (LOLPE). The data set can be described thus: Example A glasshouse herbicide test, post-emergence, LOLPE. The conditions noted are these: Lolium perenne, post-emergence, 312 h, Rate 250 g/ha, sprayed after 8 days cultivation, evaluated after 13 days, read-out: Post-Emergence Activity LOLPE (100=total damage to plant; 0=no damage to plant). Here is the method:
as §1, §2, §3

The subject of data set [4] is Avena fatua (AVEFA). The data set can be described thus: Example A glasshouse herbicide test, pre-emergence, AVEFA. The note with it: Avena fatua, pre-emergence, 312 h, Rate 250 g/ha, sprayed after cultivation for one day, evaluated after 13 days, read-out: Pre-Emergence Activity AVEFA (100=total damage to plant; 0=no damage to plant). Here is the method:
as §1, §2, §3

Data set [5] concerns Avena fatua (AVEFA). The data set can be described thus: Example A glasshouse herbicide test, post-emergence, AVEFA. The conditions noted are these: Avena fatua, post-emergence, 312 h, Rate 250 g/ha, sprayed after 8 days cultivation, evaluated after 13 days, read-out: Post-Emergence Activity AVEFA (100=total damage to plant; 0=no damage to plant). The method, then: as §1, §2, §3

For data set [6], the system named is Echinochloa crus-galli (ECHCG). The data set can be described thus: Example A glasshouse herbicide test, pre-emergence, ECHCG. The conditions noted are these: Echinochloa crus-galli, pre-emergence, 312 h, Rate 250 g/ha, sprayed after cultivation for one day, evaluated after 13 days, read-out: Pre-Emergence Activity ECHCG (100=total damage to plant; 0=no damage to plant). The method, then: as §1, §2, §3

Data set [7] concerns Winter Wheat variety 'Hereward'. The data set is described as follows: Example B crop damage test, post-emergence, wheat seed treated with safener cloquintocet mexyl. The conditions noted are these: Rate 250 g/ha; post-emergence spray 8 days after sowing; seed treated with cloquintocet mexyl 0.5 g/kg dry seed; evaluated after 13 days. The method, then:
Seeds of the Winter Wheat variety ‘Hereward’ were seed treated with a wettable powder formulation of the cereal herbicide safener, cloquintocet mexyl, at a rate of 0.5 grams per kilogram of dry seed prior to the initiation of glasshouse testing. One seed was sown per 1.5 inch plastic pot into a sandy loam soil at a depth of 1 cm, 8 days prior to application of the test compounds and was watered and grown under controlled conditions in a glasshouse (at 24/16° C., day/night; 14 hours light; 65% humidity). The plants were sprayed post-emergence with an aqueous spray solution derived from the formulation of the technical active ingredient in acetone/water (50:50) solution containing 0.5% Tween 20 (polyoxyethelyene sorbitan monolaurate, CAS RN 9005-64-5).
(§4) The test plants were then grown in a glasshouse under controlled conditions in a glasshouse (at 24/16° C., day/night; 14 hours light; 65% humidity) and watered twice daily. After 13 days for pre and post-emergence, the test was evaluated (100=total damage to plant; 0=no damage to plant).

Data set [8] concerns Alopecurus myosuroides (ALOMY). The data set is described as follows: Example A glasshouse herbicide test, post-emergence, ALOMY. The note with it: Alopecurus myosuroides, post-emergence, 312 h, Rate 250 g/ha, sprayed after 8 days cultivation, evaluated after 13 days, read-out: Post-Emergence Activity ALOMY (100=total damage to plant; 0=no damage to plant). The method, then:
as §1, §2, §3

Data set [9] concerns Alopecurus myosuroides (ALOMY). The data set can be described thus: Example A glasshouse herbicide test, pre-emergence, ALOMY. The note with it: Alopecurus myosuroides, pre-emergence, 312 h, Rate 250 g/ha, sprayed after cultivation for one day, evaluated after 13 days, read-out: Pre-Emergence Activity ALOMY (100=total damage to plant; 0=no damage to plant). Here is the method:
as §1, §2, §3

Data set [10] deals with Winter Wheat variety 'Hereward'. The data set can be described thus: Example B crop damage test, post-emergence, unsafened wheat. The conditions noted are these: Rate 250 g/ha; post-emergence spray after 8 days cultivation; no safener; evaluated after 13 days. Here is the method: Seeds of the Winter Wheat variety ‘Hereward’ were sown in standard soil in pots. After 8 days cultivation under controlled conditions in a glasshouse (at 24/16° C., day/night; 14 hours light; 65% humidity), the plants were sprayed post-emergence with an aqueous spray solution derived from the formulation of the technical active ingredient in acetone/water (50:50) solution containing 0.5% Tween 20 (polyoxyethelyene sorbitan monolaurate, CAS RN 9005-64-5).
as §4

As to `Cc1cc(Br)cc(C)c1C1C(=O)CC(CC2CCCCC2)C1=O` (stereo not drawn) [Compound A11], the pest or weed control at 250 g/ha in [1] stood at 20%; in the data set with Lolium perenne (LOLPE) [2] it was 20%; with Lolium perenne (LOLPE) [3] it was 50%; in the data set with Avena fatua (AVEFA) [4], 0%; in the data set with Avena fatua (AVEFA) [5] it was 0%; in data set [6], 0%. The pest or weed control at 250 g/ha stood at 10% in data set [8] and 0% in data set [9]. For the same compound, the “Winter Wheat (Hereward) + cloquintocet mexyl damage (100=total damage to plant; 0=no damage to plant)” value in data set [7] came out at 0. Further, the “Winter Wheat (Hereward) damage (100=total damage to plant; 0=no damage to plant)” value in [10] came to 0.

For `Cc1cc(C)c(C2C(=O)CC(CC3CCC3)C2=O)c(C)c1` (stereo not drawn) [Compound A25], the pest or weed control at 250 g/ha in data set [1] turned out to be 90%; with Lolium perenne (LOLPE) [2], 100%; in the data set on Lolium perenne (LOLPE) [3], 100%; in the data set with Avena fatua (AVEFA) [4], 60%; with Avena fatua (AVEFA) [5], 80%; in [6], 100%. The values for the pest or weed control at 250 g/ha in data set [8] and in [9] were 60% and 100%, respectively. The “Winter Wheat (Hereward) + cloquintocet mexyl damage (100=total damage to plant; 0=no damage to plant)” value in data set [7] was found to be 0. The “Winter Wheat (Hereward) damage (100=total damage to plant; 0=no damage to plant)” value in data set [10] is 30.

In the case of `Cc1cc(C)c(C2C(=O)C/C(=C\C3CCCCC3C)C2=O)c(C)c1` (stereo not drawn) [Compound A26], the pest or weed control at 250 g/ha was 70% in [1]; 100% in the data set with Lolium perenne (LOLPE) [2]; 90% in the data set on Lolium perenne (LOLPE) [3]; 90% in the data set on Avena fatua (AVEFA) [4]; 50% with Avena fatua (AVEFA) [5]; 100% in data set [6]. The results for the pest or weed control at 250 g/ha in [8] and in [9] were 60% and 90%, respectively. The “Winter Wheat (Hereward) + cloquintocet mexyl damage (100=total damage to plant; 0=no damage to plant)” value in data set [7] turned out to be 20. Further, the “Winter Wheat (Hereward) damage (100=total damage to plant; 0=no damage to plant)” value in data set [10] stood at 40.

Consider `Cc1cc(C)c(C2C(=O)C/C(=C\C3CC3)C2=O)c(C)c1` (stereo not drawn) [Compound A27, 4-[1-Cyclopropyl-methylidene]-2-(2,4,6-trimethyl-phenyl)-cyclopentane-1,3-dione], for which the pest or weed control at 250 g/ha in [1] was determined as 100%; in the data set on Lolium perenne (LOLPE) [2] it was 100%; in the data set on Lolium perenne (LOLPE) [3] it was 100%; in the data set on Avena fatua (AVEFA) [4], 70%; with Avena fatua (AVEFA) [5] it was 70%; in [6] it was 100%. Besides, the pest or weed control at 250 g/ha in data set [8] amounted to 60%; in data set [9], 90%. For the same compound, in data set [7], the “Winter Wheat (Hereward) + cloquintocet mexyl damage (100=total damage to plant; 0=no damage to plant)” value is reported as 0. Besides, the “Winter Wheat (Hereward) damage (100=total damage to plant; 0=no damage to plant)” value in data set [10] was 40.

For `Cc1cc(C)c(C2C(=O)CC(CC3CC3)C2=O)c(C)c1` (stereo not drawn) [Compound A28, 4-Cyclopropylmethyl-2-(2,4,6-trimethyl-phenyl)-cyclopentane-1,3-dione], the pest or weed control at 250 g/ha was 90% in data set [1]; 100% in the data set with Lolium perenne (LOLPE) [2]; 100% with Lolium perenne (LOLPE) [3]; 70% in the data set on Avena fatua (AVEFA) [4]; 50% in the data set on Avena fatua (AVEFA) [5]; 100% in [6]. The pest or weed control at 250 g/ha in data set [8] amounted to 70%; in [9] it was 90%. The “Winter Wheat (Hereward) + cloquintocet mexyl damage (100=total damage to plant; 0=no damage to plant)” value in data set [7] came to 10. Besides, the “Winter Wheat (Hereward) damage (100=total damage to plant; 0=no damage to plant)” value in data set [10] was 30.

For `Cc1cc(C)c(C2C(=O)C/C(=C\C3CCCC(C)C3)C2=O)c(C)c1` (stereo not drawn) [Compound A30], the pest or weed control at 250 g/ha in data set [1] came out at 80%; in the data set with Lolium perenne (LOLPE) [2], 100%; with Lolium perenne (LOLPE) [3] it was 60%; in the data set with Avena fatua (AVEFA) [4], 70%; in the data set on Avena fatua (AVEFA) [5] it was 70%; in data set [6] it was 100%. In addition, the pest or weed control at 250 g/ha in [8] was found to be 60%; in data set [9], 80%. In data set [7], the “Winter Wheat (Hereward) + cloquintocet mexyl damage (100=total damage to plant; 0=no damage to plant)” value worked out at 0. Moreover, the “Winter Wheat (Hereward) damage (100=total damage to plant; 0=no damage to plant)” value in [10] amounted to 50.
